System: transcription factor AP-1
Experiment: AP-1-driven luciferase reporter gene assay in transfected Jurkat T cells (Jurkat/AP-1rep)
Assay type: cell-based
Settings: Jurkat/AP-1rep cells stimulated 5.5 h at 37° C. with phorbol myristate acetate and ionomycin; FIG. 1
Experimental: The compounds of formula (I) were assayed for AP-1 enhancement. The compounds of this invention were tested in assays for the modulation of stimulated activity of an AP-1-driven reporter gene in the Jurkat T cell line. The activation of this reporter gene results in luciferase production and the amounts of produced luciferase parallels the level of AP-1 activity. A high level of AP-1 activity is pivotal to e.g. high production of IL-2.
Cells from the Jurkat T cell line were transfected with an AP-1-driven luciferase gene reporter construct (Parra et al., 1997) together with a selection gene vector. Selected clones from the resulting stable AP-1 reporter gene transfectants were used in the assays for AP-1 transcription factor activity. These transfected Jurkat cells (Jurkat/AP-1rep) were grown in RPMI 1640 supplemented with glutamine, hepes, sodium pyruvate, gentamicin, 10% FCS and G418. To evaluate distinct compounds for their capacity to enhance the AP-1 activity, Jurkat/AP-1rep cells were stimulated for 5.5 h in the temperature of 37° C. with phorbol myristate acetate and ionomycin in the absence and presence of test compounds. The 96 well plates containing the cell cultures were then put on ice until harvested. […] AP-1 activity was measured as luminiscence produced by luciferase substrate, which was added to the wells in conjunction with measurement.

How did the “enhancement of the AP-1 driven reporter gene activity (luciferase luminescence)” value turn out when `CCN(CC)C(C)CNC(=O)c1ccc(NC(=O)C(C)C)cc1OC` (stereo not shown) [Compound A, N-[(2-Diethylamino)propyl]-4-isobutyrylamino-2-methoxy-benzamide] was run?
Its value is “enhance the activity of the AP-1 driven reporter in a dose dependent fashion down to μM concentrations”.
